Assay results taken from publication PMC9099842, “Isolation of Potato Endophytes and Screening of Chaetomium globosum Antimicrobial Genes” (International Journal of Molecular Sciences, 2022).
Ends that are not written are not given here.

What was measured:
[1] = test system: Xanthomonas campestris pv. Holcicola; type: cell-based
X. oryzae pv. oryzae [2] = type: cell-based, Xanthomonas oryzae pv. oryzae; details: purified peptide, 96-well plate, LB, 28 °C, 12 h
[3] = test system: four tested strains (C. fangii, X. oryzae pv. oryzicola, X. oryzae pv. oryzae, C. michiganensis); type: cell-based; details: peptides at their MICs, 28 °C, OD 600 nm; after 12 h of treatment
X. oryzae pv. oryzae [4] = type: cell-based, Xanthomonas oryzae pv. oryzae; details: 20 μL extracellular peptides on filter paper, 28 °C, 5-7 h, mean ± SD, three independent experiments
C. michiganensis [5] = assay: Pathogenicity assay (control effect on tomato plants); type: in vivo, Clavibacter michiganensis; details: stem acupuncture inoculation of C. michiganensis mixed with equal volume of peptide at 2× MIC, greenhouse, at 7 d; for Disease Index: letters = differences at p < 0.05; for Control Efficacy (%): relative to PBS buffer group
Protocol: C. michiganensis was cultured to the logarithmic growth phase, then the pathogenic bacteria were mixed with an equal volume of antimicrobial peptides at 2× MIC, and finally tomato plants were inoculated using the stem acupuncture method. The positive control was mixed with an equal volume of polymyxin B and pathogenic bacteria, and the negative control was mixed with an equal volume of PBS buffer and pathogenic bacteria. After inoculation, the tomato plants were cultured under greenhouse conditions, and the disease incidence was observed and recorded. The equation of disease grading criteria, incidence rate, and disease index are found in Supplementary Method S5. […]
Peptide purification procedure
B. subtilis was grown in 300 mL liquid LB medium containing kanamycin (10 mg/L) and incubated at 180 r/min, 37 °C for 72 h. The supernatant was collected by centrifugation at […]
10,000× g for 25 min at 4°C. […]
Pathogenecity assay equation
C. michiganensis disease grading criteria are as follows, grade 0: no wilting or stem necrosis of leaves (or cotyledons); grade 1: mild yellowing or wilting of leaves (or cotyledons); grade 2: moderate wilting or wilting of leaves (or cotyledons) and mild necrosis of stem; Grade 3: severe wilting of leaves (or cotyledons) or severe necrosis of stem; Grade 4: plant death. The formulas for incidence rate, disease index and control efficacy are as follows: Incidence rate

[6] = test system: X. campestris pv. Holcicola; assay: Minimum inhibitory concentration (MIC) assay; type: cell-based, Xanthomonas campestris pv. Holcicola; details: purified peptide, 96-well plate, LB, 28 °C, 12 h
Protocol: (§1) The indicator bacteria were inoculated in LB liquid medium (OD600 ≈ 0.8–1.0) and then diluted with the indicator bacteria (OD600 ≈ 0.02–0.05). After that, we added 40 μL of diluted indicator bacteria solution to 96-well titer plates. The AMPs were diluted through a series of concentration gradients, and then an equal volume of peptides was added to the above 96-well plate and incubated at 28 °C for 12 h. […] To determine the time-kill assay, the purified antimicrobial peptide concentration was adjusted to 2× MIC concentration, and then added to a 96-well plate in equal volume with the indicator bacteria, with at least 3 wells for each concentration. After mixing the liquid evenly, it was incubated at 28 °C for 2 h, 4 h, 6 h, 8 h, 10 h, 12 h, and 24 h, and then the OD value was obtained at 600 nm.

C. michiganensis [7] = assay: Minimum inhibitory concentration (MIC) assay; type: cell-based, Clavibacter michiganensis; details: purified peptide, 96-well plate, LB, 28 °C, 12 h
Protocol: as §1

[8] = test system: Gram-positive and Gram-negative bacteria; type: physicochemical
[9] = test system: C. michiganensis, C. fangii, X. oryzae pv. oryzae and X. oryzae pv. oryzicola; type: physicochemical; details: read-out agar diffusion test; for antibacterial activity after heat treatment (thermal stability), 4–75 °C: heated 30 min at 25, 50, 75 °C (4 °C control); for antibacterial activity after heat treatment (thermal stability), 100 °C: heated at 100 °C for 30 min
[10] = test system: Gram-negative bacteria and Gram-positive bacteria; assay: MIC assay, range over all tested strains; type: cell-based; details: purified peptide, 96-well plate, 28 °C, 12 h; range over Gram-negative and Gram-positive strains of Table 4
Protocol: as §1

R. solani = type: cell-based, Rhizoctonia solani
B. cinerea = type: cell-based, Botrytis cinerea
C. fangii [11] = assay: Minimum inhibitory concentration (MIC) assay; type: cell-based, Clavibacter fangii; details: purified peptide, 96-well plate, LB, 28 °C, 12 h
Protocol: as §1

X. oryzae pv. oryzae [12] = type: cell-based, Xanthomonas oryzae pv. oryzae; details: X. oryzae pv. oryzae co-incubated with peptide 2 h at 28 °C; MIC concentration
X. oryzae pv. oryzicola [13] = type: cell-based, Xanthomonas oryzae pv. oryzicola; details: 20 μL extracellular peptides on filter paper, 28 °C, 5-7 h, mean ± SD, three independent experiments
porcine erythrocytes = details: 5× MIC, 37 °C, 1 h, absorbance 385 nm, 0.1% Triton X-100 = 100%, PBS = 0%
F. graminearum = type: cell-based, Fusarium graminearum; details: 200 μL extracellular peptide per well, 28 °C, 2–4 days, vs PBS
C. fangii [14] = type: cell-based, Clavibacter fangii
C. michiganensis [15] = type: cell-based, Clavibacter michiganensis
C. michiganensis [16] = type: cell-based, Clavibacter michiganensis; remark: listed apart in the source
X. oryzae pv. oryzicola [17] = type: cell-based, Xanthomonas oryzae pv. oryzicola; details: purified peptide, 96-well plate, LB, 28 °C, 12 h

Substance | inhibition of bacterial growth (in words) [1] | bacterial growth in time-kill curve [3] | antimicrobial diameter (bacteriostatic spectrum) (X. oryzae pv. oryzae [4]) [cm] | Incidence (%) (C. michiganensis [5]) | Disease Index (C. michiganensis [5]) | Control Efficacy (%) (C. michiganensis [5]) | antibacterial activity after UV treatment (UV stability) [8] | antibacterial activity after heat treatment (thermal stability), 4–75 °C [9] | antibacterial activity after heat treatment (thermal stability), 100 °C [9] | inhibition of mycelia growth (in words) (R. solani) | inhibition of mycelia growth (in words) (B. cinerea) | cell membrane damage by SEM (X. oryzae pv. oryzae [12]) | antimicrobial diameter (bacteriostatic spectrum) (X. oryzae pv. oryzicola [13]) [cm] | inhibition of mycelia growth (in words) (F. graminearum) | antimicrobial diameter (bacteriostatic spectrum) (C. fangii [14]) [cm] | cell membrane damage by SEM (C. michiganensis [15]) | antimicrobial diameter (bacteriostatic spectrum) (C. michiganensis [16]) [cm] | further results
LAVHHLHSIRGRHHSCTIAQTQANHRHNSYQPNNSSCLAKETDLPTTRSTPATTSSTAPARKSPPASPAPTRQRLCPSPPRGPVSSRHPRRRGQARGRTRAAGVRRTKGYGGKCV [CgR2150, 115-residue antimicrobial peptide from C. globosum cDNA library, expressed and secreted by B. subtilis SCK6] | significantly inhibit the growth | hardly grew | 1.39 ± 0.036 | 13.33 c % | 5.83 | 92.56 b % | stable bacteriostatic activity | obvious antibacterial activity | lost their activity | significantly inhibit the mycelia growth | significantly inhibit the mycelia growth | significantly shrunken and morphologically abnormal | 1.29 ± 0.034 | significantly inhibit the mycelia growth | 1.21 ± 0.037 | severely damaged, with obvious gaps and ruptures | 1.19 ± 0.033 | MIC (X. oryzae pv. oryzae [2]): 10 mg/L; MIC [6]: 25 mg/L; MIC (C. michiganensis [7]): 18 mg/L; MIC, range over the five tested bacteria [10]: 10 to 25 mg/L; MIC (C. fangii [11]): 15 mg/L; hemolytic activity (porcine erythrocytes): 0.32%; MIC (X. oryzae pv. oryzicola [17]): 10 mg/L
LAVPNFEPPTRTTCPAPTSPGNPCGPPPPASQTRRPPFHPTSPLRR (cysteines drawn unpaired) [CgR3101] | significantly inhibit the growth | hardly grew | 1.19 ± 0.036 | 16.67 b % | 7.50 b | 90.43 c % | stable bacteriostatic activity | obvious antibacterial activity | lost their activity | significantly inhibit the mycelia growth | significantly inhibit the mycelia growth | significantly shrunken and morphologically abnormal | 1.26 ± 0.024 | significantly inhibit the mycelia growth | 1.15 ± 0.029 | severely damaged, with obvious gaps and ruptures | 1.04 ± 0.033 | 
Polymyxin B [reference compound] |  |  |  | 10.00 d % | 3.33 c | 95.75 a % |  |  |  |  |  |  |  |  |  |  |  | 
